Laboratory results published in PubChem BioAssay AID316 (DTP/NCI, 2004).
Where “and” joins values, the source holds several entries; their conditions need not be identical. Equal values may be shown once. Inconclusive results and toxic doses are left out.

Test system: P1534 leukemia ip, CD2F1 mice, survival T/C
Assay: NCI In Vivo Anticancer Drug Screen. Data for tumor model P1534 Leukemia (intraperitoneal) in CD2F1 (CDF1) mice
Conditions: endpoint: mean survival time, higher = longer survival
Method: The antitumor activity of compounds was measured in mice bearing transplantable tumors. Survival or tumor size were measured and the results are expressed as the measurement made in the treated group (T) divided by the measurement made in the vehicle treated control group (C). The tumor model used in this assay is P1534 Leukemia (intraperitoneal) in CD2F1 (CDF1) mice

[1] = dose: 3.0 mg/kg/injection, schedule: Q01DX010 (ip), vehicle: saline
[2] = dose: 50.0 mg/kg/injection, schedule: Q01DX010 (ip), vehicle: saline
[3] = dose: 100.0 mg/kg/injection, schedule: Q01DX010 (ip), vehicle: saline
[4] = dose: 200.0 mg/kg/injection, schedule: Q01DX010 (ip), vehicle: saline
[5] = dose: 400.0 mg/kg/injection, schedule: Q01DX010 (ip), vehicle: saline
[6] = dose: 5.0 mg/kg/injection, schedule: Q01DX010 (ip), vehicle: saline
[7] = dose: 10.0 mg/kg/injection, schedule: Q01DX010 (ip), vehicle: saline
[8] = dose: 12.5 mg/kg/injection, schedule: Q01DX010 (ip), vehicle: saline
[9] = dose: 25.0 mg/kg/injection, schedule: Q01DX010 (ip), vehicle: saline
[10] = dose: 62.5 mg/kg/injection, schedule: Q01DX010 (ip), vehicle: saline
[11] = dose: 125.0 mg/kg/injection, schedule: Q01DX010 (ip), vehicle: saline
[12] = dose: 1.25 mg/kg/injection, schedule: Q01DX010 (ip), vehicle: saline

NC(=O)c1ccc(N)nc1
T/C (dose: 0.25 mg/kg/injection, schedule: Q#A X020 (ip), vehicle: saline): 119 % of control
T/C (dose: 0.38 mg/kg/injection, schedule: Q01DX010 (ip), vehicle: saline): 120 % of control and 94 % of control
T/C (dose: 0.75 mg/kg/injection, schedule: Q01DX010 (ip), vehicle: saline): 153 % of control
T/C (dose: 1.5 mg/kg/injection, schedule: Q01DX006 (iv), vehicle: saline): 114 % of control
T/C (dose: 1.5 mg/kg/injection, schedule: Q01DX010 (im), vehicle: saline): 121 % of control
T/C (dose: 1.5 mg/kg/injection, schedule: Q01DX010 (oral), vehicle: saline): 100 % of control
T/C (dose: 1.5 mg/kg/injection, schedule: Q01DX010 (sc), vehicle: saline): 121 % of control
T/C (dose: 1.5 mg/kg/injection, schedule: Q03DX Z (ip), vehicle: saline): 119 % of control
T/C (dose: 2.0 mg/kg/injection, schedule: Q#A X020 (ip), vehicle: saline): 100 % of control
T/C (dose: 3.0 mg/kg/injection, schedule: Q01DX006 (iv), vehicle: saline): 114 % of control
T/C (dose: 3.0 mg/kg/injection, schedule: Q01DX010 (im), vehicle: saline): 121 % of control
T/C [1]: 158 % of control
T/C (dose: 3.0 mg/kg/injection, schedule: Q01DX010 (oral), vehicle: saline): 123 % of control
T/C (dose: 3.5 mg/kg/injection, schedule: Q01DX001 (ip), vehicle: saline): 115 % of control
T/C (dose: 3.5 mg/kg/injection, schedule: Q07DX Z (ip), vehicle: saline): 115 % of control
T/C (dose: 6.0 mg/kg/injection, schedule: Q01DX010 (im), vehicle: saline): 121 % of control
T/C (dose: 6.0 mg/kg/injection, schedule: Q01DX010 (ip), vehicle: saline): 88 % of control
T/C (dose: 7.0 mg/kg/injection, schedule: Q01DX001 (ip), vehicle: saline): 115 % of control
T/C (dose: 12.0 mg/kg/injection, schedule: Q03DX Z (ip), vehicle: saline): 119 % of control
T/C (dose: 14.0 mg/kg/injection, schedule: Q01DX001 (ip), vehicle: saline): 117 % of control and 119 % of control
T/C (dose: 14.0 mg/kg/injection, schedule: Q07DX Z (ip), vehicle: saline): 117 % of control and 119 % of control
T/C (dose: 28.0 mg/kg/injection, schedule: Q01DX001 (ip), vehicle: saline): 88 % of control
T/C (dose: 112.0 mg/kg/injection, schedule: Q01DX001 (ip), vehicle: saline): 121 % of control

O=C(O)c1cc(C(=O)O)[nH]n1
T/C (dose: 100.0 mg/kg/injection, schedule: Q01DX010 (ip), vehicle: water): 103 % of control
T/C (dose: 150.0 mg/kg/injection, schedule: Q01DX010 (ip), vehicle: water): 103 % of control

COc1ccc2c(=O)cc(-c3ccccc3)n(C)c2c1
T/C [2]: 103 % of control
T/C [3]: 103 % of control
T/C [4]: 103 % of control
T/C [5]: 96 % of control

CC(=O)O[C@]1(C(C)=O)CC[C@H]2[C@@H]3C[C@H](C)C4=CC(=O)C=C[C@]4(C)[C@@]3(F)[C@@H](O)C[C@@]21C
T/C (dose: 12.5 mg/kg/injection, schedule: Q01DX010 (sc), vehicle: steriod suspending solution): 103 % of control
T/C (dose: 25.0 mg/kg/injection, schedule: Q01DX010 (sc), vehicle: steriod suspending solution): 92 % of control

CC1CCC2C(C)C3C(CC4C5CC=C6CC(OC7OC(CO)C(O)C(OC8OC(CO)C(O)C(O)C8O)C7OC7OC(C)C(O)C(O)C7O)CCC6(C)C5CCC43C)N2C1 (stereo not drawn)
T/C [2]: 96 % of control
T/C [3]: 100 % of control
T/C [4]: 96 % of control
T/C [5]: 92 % of control

C[C@@H]1C[C@@H]([C@H](O)CC2CC(=O)NC(=O)C2)C(=O)[C@@H](C)C1
T/C [6]: 112 % of control and 100 % of control
T/C [7]: 111 % of control and 112 % of control
T/C (dose: 20.0 mg/kg/injection, schedule: Q01DX010 (ip), vehicle: saline): 111 % of control
T/C (dose: 40.0 mg/kg/injection, schedule: Q01DX010 (ip), vehicle: saline): 105 % of control

CCCNc1ncnc2[nH]ncc12
T/C (dose: 3.13 mg/kg/injection, schedule: Q01DX010 (ip), vehicle: saline): 100 % of control
T/C (dose: 6.25 mg/kg/injection, schedule: Q01DX010 (ip), vehicle: saline): 88 % of control and 100 % of control
T/C [8]: 111 % of control and 100 % of control
T/C [9]: 94 % of control and 100 % of control

O=CN(O)CC(=O)O
T/C (dose: 15.6 mg/kg/injection, schedule: Q01DX010 (ip), vehicle: saline): 100 % of control
T/C (dose: 31.3 mg/kg/injection, schedule: Q01DX010 (ip), vehicle: saline): 100 % of control
T/C [10]: 100 % of control
T/C [11]: 103 % of control

Cc1cc2nc3c(=O)[nH]c(=O)nc-3n(CC(O)C(O)C(O)C(O)CO)c2cc1C (stereo not drawn)
T/C [9]: 111 % of control
T/C [2]: 107 % of control and 100 % of control
T/C [3]: 107 % of control and 111 % of control
T/C [4]: 111 % of control

O=C(O)c1[nH]c(=O)[nH]c(=O)c1F
T/C [12]: 106 % of control
T/C [6]: 236 % of control
T/C [7]: 106 % of control

CC(=O)N(C)C
T/C [10]: 94 % of control and 100 % of control
T/C [11]: 105 % of control and 100 % of control
T/C (dose: 250.0 mg/kg/injection, schedule: Q01DX010 (ip), vehicle: saline): 105 % of control and 100 % of control
T/C (dose: 500.0 mg/kg/injection, schedule: Q01DX010 (ip), vehicle: saline): 100 % of control

N#Cc1cn(C2OC(CO)C(O)C2O)c2ncnc(N)c12 (stereo not drawn)
T/C (dose: 16.0 micrograms/kg/injection, schedule: Q01DX010 (ip), vehicle: saline): 107 % of control
T/C (dose: 32.0 micrograms/kg/injection, schedule: Q01DX010 (ip), vehicle: saline): 100 % of control
T/C (dose: 63.0 micrograms/kg/injection, schedule: Q01DX010 (ip), vehicle: saline): 107 % of control

C=C(C(=O)OC1CC2CCC(C1)N2C)c1ccccc1 (stereo not drawn)
T/C [12]: 92 % of control
T/C (dose: 2.5 mg/kg/injection, schedule: Q01DX010 (ip), vehicle: saline): 92 % of control
T/C [6]: 100 % of control
T/C [7]: 107 % of control

O=C(NCCCC(NC(=O)OCc1ccccc1)C(=O)NCCCCCCNCCCCCCNC(=O)C(CCCNC(=O)OCc1ccccc1)NC(=O)OCc1ccccc1)OCc1ccccc1 (stereo not drawn)
T/C [8]: 100 % of control
T/C [9]: 100 % of control
T/C [3]: 100 % of control

CCCCCCCCCCCCCCCCC(C(=O)O)C(O)(CC(=O)O)C(=O)O (stereo not drawn)
T/C [9]: 88 % of control

Nc1nc(=S)c2ncn(C3OC(CO)C(O)C3O)c2[nH]1 (stereo not drawn)
T/C (dose: 0.31 mg/kg/injection, schedule: Q01DX010 (ip), vehicle: saline): 103 % of control
T/C (dose: 0.63 mg/kg/injection, schedule: Q01DX010 (ip), vehicle: saline): 103 % of control
T/C [12]: 106 % of control

CC1CCC2(NC1)OC1CC3C4CCC5CC(OC6OC(CO)C(OC7OC(CO)C(O)C(OC8OCC(O)C(O)C8O)C7OC7OC(CO)C(O)C(O)C7O)C(O)C6O)CCC5(C)C4CCC3(C)C1C2C (stereo not drawn)
T/C (dose: 5.0 mg/kg/injection, schedule: Q01DX010 (sc), vehicle: steriod suspending solution): 100 % of control
T/C (dose: 10.0 mg/kg/injection, schedule: Q01DX010 (sc), vehicle: steriod suspending solution): 100 % of control

CCCCOP(=S)(N1CC1)N1CC1
T/C (dose: 4.0 mg/kg/injection, schedule: Q01DX010 (ip), vehicle: saline): 115 % of control
T/C (dose: 8.0 mg/kg/injection, schedule: Q01DX010 (ip), vehicle: saline): 123 % of control

COCCOC
T/C (dose: 300.0 mg/kg/injection, schedule: Q01DX010 (ip), vehicle: saline): 100 % of control
T/C (dose: 450.0 mg/kg/injection, schedule: Q01DX010 (ip), vehicle: saline): 107 % of control
T/C (dose: 675.0 mg/kg/injection, schedule: Q01DX010 (ip), vehicle: saline): 103 % of control

C[C@]12CCC(=O)C[C@H]1CC[C@@H]1[C@@H]2CC[C@@]2(C)[C@H]1CC[C@]2(C)O
T/C (dose: 50.0 mg/kg/injection, schedule: Q01DX010 (sc), vehicle: steriod suspending solution): 100 % of control
T/C (dose: 100.0 mg/kg/injection, schedule: Q01DX010 (sc), vehicle: steriod suspending solution): 100 % of control
T/C (dose: 200.0 mg/kg/injection, schedule: Q01DX010 (sc), vehicle: steriod suspending solution): 96 % of control
T/C (dose: 400.0 mg/kg/injection, schedule: Q01DX010 (sc), vehicle: steriod suspending solution): 96 % of control

CC[C@]12CN3CCc4c([nH]c5ccccc45)[C@@](C(=O)OC)(c4cc5c(cc4OC)N(C)[C@H]4[C@@](O)(C(=O)OC)[C@H](OC(C)=O)[C@]6(CC)C=CCN7CC[C@]54[C@@H]76)CC(C3)[C@H]1O2 (stereo partly drawn)
T/C (dose: 1.5 mg/kg/injection, schedule: Q01DX010 (ip), vehicle: saline): 182 % of control
T/C [1]: 260 % of control
T/C (dose: 94.0 micrograms/kg/injection, schedule: Q01DX010 (ip), vehicle: saline): 96 % of control
T/C (dose: 188.0 micrograms/kg/injection, schedule: Q01DX010 (ip), vehicle: saline): 103 % of control
T/C (dose: 375.0 micrograms/kg/injection, schedule: Q01DX010 (ip), vehicle: saline): 123 % of control
